Measurements from patent EP4610267A1, “CYCLIC DINUCLEOTIDES AND CONJUGATES THEREOF WITH ANTIBODIES” (priority 2024, dated 2025).

Legend:
Details in all cases: digitonin permeabilised 293T reporter cells
STING AQ = target: T1, STING AQ (Homo sapiens, UniProt Q86WV6, G230A/H232R/R293Q); experiment: 293T STING digitonin reporter assay (AQ haplotype); type: cell-based
T1 construct: expressed in transfected cells
Description: (§1) Digitonin Assay with 293T Reporter Cells. The generation of 293T reporter cells stably expressing different STING protein haplotypes (WT, HAQ, REF, AQ, or Q) was described previously (Novotna et al, J. Med. Chem. 2019,62, 10676). The cells were seeded at a density of 250 000 cells per cm^2 into 96 well white poly(D-lysine) coated plates in 100 µL of DMEM with high glucose supplemented with 10% heat inactivated FBS. Next day, the medium was removed, and compounds were added in 3-fold serial dilutions in a digitonin buffer containing 50 mM HEPES (pH 7.0), 100 mM KCl, 3 mM MgClz, 0.1 mM DTT, 85 mM sucrose, 0.2% (w/w) BSA, 1 mM ATP, 0.1 mM GTP, and 10 µg/mL digitonin A. After 30 min incubation at 37 °C with 5% CO2, the digitonin buffer was removed, cells were washed once with 100 µL of the cultivation medium, and 100 µL of fresh medium was added to each well. The plates with cells were further incubated for 5 h at 37 °C with 5% CO2. Thereafter, 50 µL of the medium was removed, and 30 µL of Bright-Glo Luciferase Assay System reagent was added to each well. […] Nonlinear regression curve fit with standard slope was used for EC50 value calculations. The EC50 value represents CDN concentration that gives half-maximal response of firefly luciferase in the 293T reporter assay.

STING REF = target: T2, STING REF (Homo sapiens, UniProt Q86WV6); experiment: 293T STING digitonin reporter assay (REF haplotype); type: cell-based
T2 construct: expressed in transfected cells
Description: as §1

STING HAQ = target: T3, STING HAQ (Homo sapiens, UniProt Q86WV6, G230A/H232R/R293Q/R71H); experiment: 293T STING digitonin reporter assay (HAQ haplotype); type: cell-based
T3 construct: expressed in transfected cells
Description: as §1

STING WT = target: T4, STING WT (Homo sapiens, UniProt Q86WV6, H232R); experiment: 293T STING digitonin reporter assay (WT haplotype); type: cell-based
T4 construct: expressed in transfected cells
Description: as §1

STING Q = experiment: 293T STING digitonin reporter assay (Q haplotype); type: cell-based, human
Description: as §1

T1 sequence (Q86WV6 whole entry G230A/H232R/R293Q): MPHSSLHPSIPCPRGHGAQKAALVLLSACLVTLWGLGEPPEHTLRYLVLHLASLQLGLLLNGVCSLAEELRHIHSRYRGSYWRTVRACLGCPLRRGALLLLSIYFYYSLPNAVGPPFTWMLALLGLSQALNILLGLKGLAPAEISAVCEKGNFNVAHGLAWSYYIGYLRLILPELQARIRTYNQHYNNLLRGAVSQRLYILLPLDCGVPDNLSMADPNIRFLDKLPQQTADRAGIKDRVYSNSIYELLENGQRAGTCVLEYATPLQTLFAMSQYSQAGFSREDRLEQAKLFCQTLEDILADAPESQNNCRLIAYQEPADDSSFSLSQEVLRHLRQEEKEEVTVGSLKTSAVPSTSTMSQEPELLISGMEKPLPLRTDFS
T2 sequence (Q86WV6 whole entry): as the sequence (Q86WV6 whole entry G230A/H232R/R293Q) above, with A230G, R232H, Q293R counted along it
T3 sequence (Q86WV6 whole entry R71H/G230A/H232R/R293Q): as the sequence (Q86WV6 whole entry G230A/H232R/R293Q) above, with R71H counted along it
T4 sequence (Q86WV6 whole entry H232R): as the sequence (Q86WV6 whole entry G230A/H232R/R293Q) above, with A230G, Q293R counted along it

## Nc1ncnc2c1ncn2[C@@H]1O[C@@H]2OCP(=O)(S)O[C@@H]3[C@H](F)[C@@H](COP(=O)(S)OC[C@H]2[C@H]1F)O[C@H]3n1cnc2c(=O)[nH]cnc21 (single isomer, unassigned) [Compound 2.1]
STING AQ
  EC50: 180 nM
STING REF
  EC50: 140 nM
STING HAQ
  EC50: 180 nM
STING WT
  EC50: 30 nM
STING Q
  EC50: 350 nM
